In US10449183B2, “Methods for inhibiting preterm labor and uterine contractility disorders and preventing cervical ripening” (DIGNITY HEALTH, priority 2010, dated 2019):
“Also recorded” adds a separate entry of the source.

Assays:
cervix of pregnant rats = assay: Cervical ripening assessed in vivo by collagen light-induced fluorescence (LIF) with the collascope; parameters: species or system Sprague-Dawley rats
Source text: (§1) Nonpregnant and timed-pregnant Sprague-Dawley rats (200-250 g) from Charles-River Laboratories (Wilmington, Mass., USA) were delivered to animal care facilities on day 12 of gestation (day 1 being the day when a sperm plug was observed). The animals were housed separately, with free access to food and water and maintained on a constant 12-hour light-dark cycle. Control pregnant rats were spontaneously delivering on day 22 and 23 of gestation. For the measurements with the collascope the animals were anaesthetized (interperitoneal (i.p). injection) with a combination of xylazine (Gemini, Burns Veterinary Supply Inc, Rockville Center, N.Y., USA) and ketamine HCl (Ketaset; Fort Dodge Laboratories Inc, Fort Dodge, Iowa, USA). The animals were randomly allocated to one of the groups and sacrificed by carbon dioxide inhalation on day 3, 5, 7 and 10 postpartum or on day 25 of pregnancy in the groups with delayed delivery. All procedures were approved by the Animal Care and Use Committee of the St. Joseph's Hospital and Medical Center in Phoenix.
(§2) Prior to any treatment LIF measurements were made in control rats throughout pregnancy and postpartum to estimate the LIF profile during gestation (see FIG. 1). Pregnant rats (N=6/group) were treated (see FIG. 2), when not otherwise mentioned (see FIG. 3), from day 13 of pregnancy until delivery. Single daily treatments were performed at 8 a.m. and twice a day treatments at 8 a.m. and 8 p.m. All single injections (4 mg P4, 10 mg 17P, 2 mg promegestone (R5020)) were by the subcutaneous route (s.c.) in sesame oil (0.2 ml), which was also used for the controls. Vaginal gels were applied twice a day with a blunt ball-top needle deep into the vagina. Crinone was used for the P4 vaginal group (equivalent volumes of Crinone were used for 2-15 mg P4/treatment), all data presented show the results of the highest dose (total daily dose of 30 mg P4=⅓ of a applicator of 8% Crinone that contains 90 mg P4). For the vaginal promegestone (R5020) group micronized promegestone (R5020) (1 mg/treatment) was mixed into 0.18 ml of Replens. The control rats for the vaginal groups were treated with Replens (0.18 ml/treatment). For oral P4 treatments (15 mg, bid, vehicle sesame oil or H2O, volume 1 ml) gavage was used. For topical P4 treatment (15 mg, bid, P4 in 1 ml sesame oil, fish oil or in Replens) the drug was applied on the back of animals that were shaved on day 13, 17 and 21. In some animals (N=6) RU-486 (3 mg in 0.2 ml sesame oil) was injected subcutaneously once on day 16 of gestation.
The amount of cervical collagen was evaluated in vivo (only in group subcutaneously P4, vaginal P4, subcutaneously 17P, vaginal promegestone (R5020), subcutaneously RU-486) by measurement of the auto-fluorescent properties of cross-linked collagen with a new prototype of an instrument, termed collascope (Reproductive Research Technologies, Houston, Tex., USA), as used previously with an earlier prototype.
After insertion of a small speculum into the vagina of the anesthetized animal, the optical probe of the collascope was placed on the surface of the exocervix. […] The exposure time for excitation was 100 msec. The average of 20 measurements of the detected fluorescent intensity (photon count) at 390 nm was used for each animal at any given time. Measurements of cervical light-induced fluorescence (LIF) were performed on nonpregnant animals once and in pregnant animals every other day starting at day 13 of gestation until delivery and on postpartum day 3 and/or postpartum day 5 (see FIGS. 2 and 3), and for some animals also on postpartum days 7 and 10 (see FIGS. 1 and 3).
The cervical LIFs obtained at different times of gestation (FIG. 1) were compared using one-way analysis of variance (ANOVA) and multiple pairwise comparison procedures (Holm-Sidak). […]

pregnant rats = assay: Time of delivery of timed-pregnant rats (hours after 8 a.m. of day 22 of gestation); assay type: in vivo, Sprague-Dawley rats
Source text: as §1, §2
Times of delivery (see also FIG. 4) of controls and various treatment groups were determined as hours after 8 a.m. of day 22 of gestation (FIG. 5). The expulsion of one pup was defined as delivery.
The cervical LIFs obtained at different times of gestation (FIG. 1) were compared using one-way analysis of variance (ANOVA) and multiple pairwise comparison procedures (Holm-Sidak). Student's t-test was used to compare the LIF results of a treatment group to its specific control group at any time in gestation and postpartum and also to determine the differences in delivery times (FIGS. 2, 3 and 5). A two-tailed probability value of P<0.05 was considered statistically significant.
FIG. 15 depicts delay of delivery times in timed pregnant rats treated with progesterone (P4) with different routes and vehicles. Treatment was started on day 13 of gestation and continued until delivery of pups or until delivery was blocked at […] (day 25) past day 22 of gestation. 8 am on day 22 is noted as hour 0 and delay is compared to control group treated only with vehicle. Treatment groups included: P4 in fish oil (vaginal, nasal, injection and topical groups), P4 in cocoa butter (rectal) and P4 in sesame oil (oral). All treatment groups received a total daily dose of 30 mg P4/day except the nasal and subcutaneous injection group which received 1 mg/day and 4 mg/day, respectively. […]

[1] = s.c. injection daily in sesame oil from day 13 (P4 4 mg, 17P 10 mg, R5020 2 mg)
[2] = RU-486 3 mg s.c. once on day 16

Compound | cervical LIF / cervical ripening compared with vehicle controls (cervix of pregnant rats; vaginal promegestone (R5020) 1 mg bid in Replens from day 13) | effect on delivery (pregnant rats; [1]) | effect on delivery (pregnant rats; vaginal bid from day 13 (P4 15 mg as Crinone; R5020 1 mg in Replens)) | cervical LIF / cervical ripening compared with vehicle controls (cervix of pregnant rats; 17P 10 mg s.c. daily from day 13) | cervical ripening / softening (cervix of pregnant rats; [2]) | cervical LIF compared with vehicle controls (cervix of pregnant rats; RU-486 3 mg s.c. once on day 16, 24 and 72 hours after treatment) | cervical LIF compared with vehicle controls (cervix of pregnant rats; RU-486 3 mg s.c. once on day 16, 5 days after treatment) | animals delivered after 24 hours (pregnant rats; [2]) | delivery of the remaining two animals after treatment (pregnant rats; [2]) [h] | time of induced preterm delivery after injection (pregnant rats; [2]) [h]
CCC(=O)[C@@]1(C)CC[C@H]2[C@@H]3CCC4=CC(=O)CCC4=C3CC[C@@]21C [promegestone (R5020), Promegestone] | cervix is rigid; also recorded: significantly higher (P<0.05) in the promegestone (R5020) treated group (until day 19 only); also recorded: delayed cervical ripening but not at term immediately preceding delivery; also recorded: only attenuated until day 19 of gestation; also recorded: not significantly different from controls; also recorded: significant differences are observed only until day 19 | inhibits delivery; also recorded: completely block delivery; also recorded: prevented delivery; also recorded: completely inhibited | inhibits delivery; also recorded: completely blocked delivery; also recorded: prevented delivery; also recorded: completely inhibited; also recorded: delivery is blocked | – | – | – | – | – | – | –
CCCCCC(=O)O[C@]1(C(C)=O)CC[C@H]2[C@@H]3CCC4=CC(=O)CC[C@]4(C)[C@H]3CC[C@@]21C [17P, 17-alpha-hydroxyprogesterone caproate] | – | Delivery was not changed; also recorded: does not block delivery at all; also recorded: no significant effect on delaying term delivery | – | cervix is rigid; also recorded: significantly higher (P<0.05) in the 17P treated group (until day 19 only); also recorded: delayed cervical ripening but not at term immediately preceding delivery; also recorded: only attenuated until day 19 of gestation; also recorded: partly delays ripening; also recorded: not significantly different from controls at day 21; also recorded: significant differences are only observed until day 19 of gestation | – | – | – | – | – | –
CC#C[C@]1(O)CC[C@H]2[C@@H]3CCC4=CC(=O)CCC4=C3[C@@H](c3ccc(N(C)C)cc3)C[C@@]21C [RU-486, mifepristone] | – | – | – | – | softened the cervix during preterm delivery; also recorded: cervical ripening occurs after 24 hours followed by preterm delivery | significantly lower (P<0.05) | higher | 4 of 6 | ≤ 48 | 24 to 48
